Reference: ChEMBL document CHEMBL1201862, “PubChem BioAssay data set” (2004)
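Each compound was tested at five concentrations against cells in 96-well plates for 48 hours. Abbreviation: GI50, concentration required for 50% inhibition of growth.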 Active and inactive are the calls of the source. Rule as the data show it: active = GI50 up to about 1.1 µM and inactive = higher.

What was measured:
Test in all cases: inhibition of tumour cell growth, NCI panel, 48 h
[1] = system: BT-549
[2] = system: CAKI-1
[3] = system: COLO 205
[4] = system: DU-145
[5] = system: EKVX
[6] = system: HCC 2998
[7] = system: HCT-15
[8] = system: HOP-92
[9] = system: K562
[10] = system: KM12
[11] = system: LOX IMVI
[12] = system: MDA-N
[13] = system: MOLT-4
[14] = system: NCI-H23
[15] = system: NCI-H460
[16] = system: OVCAR-3
[17] = system: SF-268
[18] = system: SF-539
[19] = system: SR
[20] = system: SW-620

Compound	GI50 [1]	GI50 [2]	GI50 [3]	GI50 [4]	GI50 [5]	GI50 [6]	GI50 [7]	GI50 [8]	GI50 [9]	GI50 [10]	GI50 [11]	GI50 [12]	GI50 [13]	GI50 [14]	GI50 [15]	GI50 [16]	GI50 [17]	GI50 [18]	GI50 [19]	GI50 [20]
Cc1ccc(-c2cn3c(nc4ccccc43)c(-c3ccccc3)n2)cc1	32.5 µM (inactive)	37.7 µM (inactive)	> 100 µM (inactive)	> 100 µM (inactive)	> 100 µM (inactive)	> 100 µM (inactive)	> 100 µM	20.7 µM (inactive)	> 100 µM (inactive)	> 100 µM (inactive)	> 100 µM (inactive)	> 100 µM (inactive)	> 100 µM (inactive)	24 µM (inactive)	> 94.4 µM (inactive)	> 100 µM (inactive)	> 45.3 µM (inactive)	58.2 µM (inactive)	> 100 µM (inactive)	> 100 µM (inactive)
CN(C)C=O.O=C(Nc1nnn[nH]1)c1nc(O)cc(-c2ccccc2)n1	> 100 µM (inactive)	> 100 µM (inactive)	> 100 µM (inactive)	> 100 µM (inactive)	> 100 µM (inactive)	> 100 µM (inactive)	> 100 µM	> 100 µM (inactive)	> 100 µM (inactive)	> 100 µM (inactive)	> 100 µM (inactive)	> 100 µM (inactive)	> 100 µM (inactive)	> 100 µM (inactive)	> 100 µM (inactive)	> 100 µM (inactive)	> 100 µM (inactive)	> 100 µM (inactive)	> 100 µM (inactive)	> 100 µM (inactive)
CC1=C/C(=C(/c2ccc(O)c(C)c2)c2ccccc2C(=O)O)C=CC1=O	21.1 µM (inactive)	17.6 µM (inactive)	19.9 µM (inactive)	18.1 µM (inactive)	19.4 µM (inactive)	19.1 µM (inactive)	21.4 µM	20.3 µM (inactive)	21.3 µM (inactive)	19.3 µM (inactive)	20.7 µM (inactive)	18.7 µM (inactive)	21.9 µM (inactive)	20.2 µM (inactive)	31.5 µM (inactive)	18 µM (inactive)	25.2 µM (inactive)	19 µM (inactive)	20.7 µM (inactive)	19 µM (inactive)
Cn1c(CC(O)c2nc3ccccc3n2C)nc2ccccc21 (stereo not given)	> 34.4 µM (inactive)	> 100 µM (inactive)	> 28.4 µM (inactive)	> 14.6 µM (inactive)	> 100 µM (inactive)	> 100 µM (inactive)	> 16 µM	> 24.4 µM (inactive)	> 9.51 µM (inactive)	> 100 µM (inactive)	> 28.8 µM (inactive)	> 100 µM (inactive)	> 13.7 µM (inactive)	> 17.6 µM (inactive)	> 27.4 µM (inactive)	> 13.1 µM (inactive)	> 16.2 µM (inactive)	> 39.1 µM (inactive)	> 100 µM (inactive)	> 16 µM (inactive)
CCCCC1C=Cn2c(=O)oc3c(OC(C)C)c(C)c(O)c1c32 (stereo not given)	2.17 µM (inactive)	0.409 µM (active)	3.01 µM (inactive)	0.652 µM (active)	2.48 µM (inactive)	2.96 µM (inactive)	0.357 µM	3.05 µM (inactive)	0.91 µM (active)	1.49 µM (inactive)	0.566 µM (active)	2.37 µM (inactive)	0.824 µM (active)	1.48 µM (inactive)	0.652 µM (active)	2.75 µM (inactive)	0.796 µM (active)	2.49 µM (inactive)	0.548 µM (active)	0.904 µM (active)
Nc1nc(Cl)nc(NCc2ccccc2)n1	> 100 µM (inactive)	> 100 µM (inactive)	> 100 µM (inactive)	> 100 µM (inactive)	> 100 µM (inactive)	> 100 µM (inactive)	> 100 µM	> 100 µM (inactive)	> 100 µM (inactive)	> 100 µM (inactive)	> 100 µM (inactive)	> 100 µM (inactive)	> 100 µM (inactive)	> 100 µM (inactive)	> 100 µM (inactive)	> 100 µM (inactive)	> 100 µM (inactive)	> 100 µM (inactive)	67.8 µM (inactive)	> 100 µM (inactive)
O=C1C=CC(=O)c2c1ccc1c3ccccc3n(Cc3cccc([N+](=O)[O-])c3)c21	40.1 µM (inactive)	14.7 µM (inactive)	14.3 µM (inactive)	> 100 µM (inactive)	> 100 µM (inactive)	> 80.7 µM (inactive)	21.5 µM	20.1 µM (inactive)	6.92 µM (inactive)	> 100 µM (inactive)	33.9 µM (inactive)	16 µM (inactive)	8.65 µM (inactive)	21.7 µM (inactive)	> 95.9 µM (inactive)	17.1 µM (inactive)	39.6 µM (inactive)	> 54 µM (inactive)	12.8 µM (inactive)	11.5 µM (inactive)
